Experimental data as given in patent US20240254082A1, “Substituted Isoindoline-1, 3-diketone PDE4 Inhibitor and Pharmaceutical Application Thereof” (SUZHOU INTRAGRAND PHARMA CO., LTD, priority 2021, published 2024).

Tests used:
Type in all cases: biochemical
[1] = biological target: PDE4D3 (Homo sapiens, UniProt Q08499); assay: Inhibition assay of PDE4D3 enzyme (TR-FRET kit)
Experimental: 2. Inhibition assay of PDE4D3 enzyme:
Materials and Instruments:
FAM substrate: A stock solution of 20 μM FAM substrate was diluted to 200 nM with PDE assay buffer. 12.5 μL of the diluted substrate was added to each reaction well.
5 μL of the compound stock solution was added to 45 μL of DMSO to prepare a 1 mM diluent. 5 μL of the 1 mM diluent was added to 45 μL of PDE assay buffer to prepare a gradient dilution starting point. Then, according to the method of adding 5 μL of the previous concentration solution to 15 μL of PDE assay buffer, gradient dilution was carried out for 9 times to prepare compound working solutions with 10 concentrations. The working solutions were added to compound wells at 2.5 μL/well.
PDE4D3: 0.054 μL of a PDE4D3 recombinase stock solution was added to 1500 μL of PDE buffer, and the mixture was added to all compound wells and positive control wells at 10 μL/well. 10 μL of PDE assay buffer was added to substrate control wells.
Binding solution: 3750 μL of binding buffer A and 3750 μL of binding buffer B were mixed well. Then, 150 μL of a binder was added into the mixture and mixed well. 7.5 μL of a Tb donor was added and mixed well. The obtained mixture was added to all wells at 50 μL/well.
S520=Read value of sample 520 nm
S490=Read value of sample 490 nm
Tb520=Read value of Tb only 520 nm
Tb490=Read value of Tb only 490 nm
FRETp=Positive control FRET
FRETsub=Substrate control FRET.

[2] = biological target: PDE2A (Homo sapiens, UniProt O00408); assay: Selective inhibitory activity assay, PDE2A; settings: read-out: Inhibition rate (%) of PDE2A
Experimental: (§1) 7. Selective inhibitory activity assay for PDE1, 2, 3, 5, 7, 10 and 11 enzymes
(§2) The selective specificity of compounds for PDE4 was assessed by assaying single concentrations of the compounds. For example, PDE1a enzyme, PDElc enzyme, PDE2a enzyme, PDE3a enzyme, PDE3b enzyme, PDE5a1 enzyme, PDE7a enzyme, PDE7b enzyme, PDE10a1 enzyme and PDE11a4 enzyme were tested. The selective inhibitory effects of different compounds on the enzymatic activities of PDEIC, PDE2A, PDE3B, PDE5A1, PDE7A, and PDE10A1 at concentrations of 10 μM and 1 μM, respectively, are shown in the table below: […]

[3] = biological target: PDE7A (Homo sapiens, UniProt Q13946); assay: Selective inhibitory activity assay, PDE7A; settings: read-out: Inhibition rate (%) of PDE7A
Experimental: as §1, §2

[4] = biological target: PDE10A1 (Homo sapiens, UniProt Q9Y233); assay: Selective inhibitory activity assay, PDE10A1; settings: read-out: Inhibition rate (%) of PDE10A1
Experimental: as §1, §2

[5] = biological target: PDE3B (Homo sapiens, UniProt Q13370); assay: Selective inhibitory activity assay, PDE3B; settings: read-out: Inhibition rate (%) of PDE3B
Experimental: as §1, §2

[6] = biological target: PDE5A1 (Homo sapiens, UniProt O76074); assay: Selective inhibitory activity assay, PDE5A1; settings: read-out: Inhibition rate (%) of PDE5A1
Experimental: as §1, §2

[7] = biological target: PDE1C (Homo sapiens, UniProt Q14123); assay: Selective inhibitory activity assay, PDE1C; settings: read-out: Inhibition rate (%) of PDE1C
Experimental: as §1, §2

Chain of PDE7A (Q13946 whole entry, species assumed): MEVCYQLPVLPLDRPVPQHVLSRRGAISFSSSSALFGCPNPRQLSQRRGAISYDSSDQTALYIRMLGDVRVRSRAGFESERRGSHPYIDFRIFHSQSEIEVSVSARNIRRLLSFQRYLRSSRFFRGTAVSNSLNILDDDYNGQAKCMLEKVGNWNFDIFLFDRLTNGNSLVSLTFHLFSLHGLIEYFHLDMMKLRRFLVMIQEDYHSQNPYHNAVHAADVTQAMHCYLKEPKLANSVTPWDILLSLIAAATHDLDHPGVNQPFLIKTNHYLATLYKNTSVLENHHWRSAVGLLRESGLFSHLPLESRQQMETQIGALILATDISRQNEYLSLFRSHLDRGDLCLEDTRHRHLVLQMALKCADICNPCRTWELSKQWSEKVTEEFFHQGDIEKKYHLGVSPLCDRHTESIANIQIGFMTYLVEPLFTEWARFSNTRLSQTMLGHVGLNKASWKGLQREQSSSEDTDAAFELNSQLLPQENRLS
Chain of PDE1C (Q14123 whole entry, species assumed): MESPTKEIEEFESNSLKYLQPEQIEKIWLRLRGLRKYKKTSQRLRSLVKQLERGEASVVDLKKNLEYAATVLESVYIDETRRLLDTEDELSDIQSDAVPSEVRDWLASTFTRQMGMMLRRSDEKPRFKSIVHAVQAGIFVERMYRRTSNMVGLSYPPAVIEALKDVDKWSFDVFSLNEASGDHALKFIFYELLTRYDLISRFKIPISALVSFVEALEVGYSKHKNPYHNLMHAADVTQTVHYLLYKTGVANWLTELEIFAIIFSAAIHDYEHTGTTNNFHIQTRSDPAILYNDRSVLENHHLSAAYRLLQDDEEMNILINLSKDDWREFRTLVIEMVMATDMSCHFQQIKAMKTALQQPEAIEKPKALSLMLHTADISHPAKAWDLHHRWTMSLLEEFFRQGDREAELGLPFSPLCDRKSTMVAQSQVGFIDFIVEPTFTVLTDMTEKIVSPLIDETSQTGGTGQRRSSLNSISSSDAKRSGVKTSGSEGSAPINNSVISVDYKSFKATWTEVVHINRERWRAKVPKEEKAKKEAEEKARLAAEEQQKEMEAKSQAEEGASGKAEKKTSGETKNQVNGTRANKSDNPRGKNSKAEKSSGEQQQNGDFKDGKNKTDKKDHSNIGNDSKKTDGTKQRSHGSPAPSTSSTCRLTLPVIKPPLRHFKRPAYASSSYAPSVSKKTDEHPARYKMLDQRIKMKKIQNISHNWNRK
Chain of PDE2A (O00408 whole entry, species assumed): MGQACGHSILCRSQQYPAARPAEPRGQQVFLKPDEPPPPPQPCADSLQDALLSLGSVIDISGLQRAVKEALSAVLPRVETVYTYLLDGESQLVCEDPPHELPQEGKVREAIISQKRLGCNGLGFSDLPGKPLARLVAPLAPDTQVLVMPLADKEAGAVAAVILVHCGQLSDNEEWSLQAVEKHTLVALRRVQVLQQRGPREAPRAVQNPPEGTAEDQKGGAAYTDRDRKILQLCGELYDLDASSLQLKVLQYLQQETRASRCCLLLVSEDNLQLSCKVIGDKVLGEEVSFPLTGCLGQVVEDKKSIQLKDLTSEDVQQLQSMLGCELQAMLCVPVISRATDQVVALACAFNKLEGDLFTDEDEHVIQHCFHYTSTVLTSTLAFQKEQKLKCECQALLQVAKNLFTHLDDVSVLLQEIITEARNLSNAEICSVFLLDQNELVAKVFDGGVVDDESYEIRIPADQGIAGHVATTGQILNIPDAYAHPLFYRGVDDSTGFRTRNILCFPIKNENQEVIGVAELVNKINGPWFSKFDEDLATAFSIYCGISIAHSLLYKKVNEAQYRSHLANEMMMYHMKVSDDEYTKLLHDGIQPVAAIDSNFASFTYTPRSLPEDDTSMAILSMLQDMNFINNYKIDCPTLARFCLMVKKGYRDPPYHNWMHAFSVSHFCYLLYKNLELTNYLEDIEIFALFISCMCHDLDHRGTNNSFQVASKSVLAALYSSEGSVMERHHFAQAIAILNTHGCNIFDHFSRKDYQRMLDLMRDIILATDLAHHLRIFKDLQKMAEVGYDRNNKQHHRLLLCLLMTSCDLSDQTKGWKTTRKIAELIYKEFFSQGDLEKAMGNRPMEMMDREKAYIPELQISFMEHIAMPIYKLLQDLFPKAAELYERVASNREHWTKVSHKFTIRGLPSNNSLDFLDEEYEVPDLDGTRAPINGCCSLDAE
Chain of PDE3B (Q13370 whole entry, species assumed): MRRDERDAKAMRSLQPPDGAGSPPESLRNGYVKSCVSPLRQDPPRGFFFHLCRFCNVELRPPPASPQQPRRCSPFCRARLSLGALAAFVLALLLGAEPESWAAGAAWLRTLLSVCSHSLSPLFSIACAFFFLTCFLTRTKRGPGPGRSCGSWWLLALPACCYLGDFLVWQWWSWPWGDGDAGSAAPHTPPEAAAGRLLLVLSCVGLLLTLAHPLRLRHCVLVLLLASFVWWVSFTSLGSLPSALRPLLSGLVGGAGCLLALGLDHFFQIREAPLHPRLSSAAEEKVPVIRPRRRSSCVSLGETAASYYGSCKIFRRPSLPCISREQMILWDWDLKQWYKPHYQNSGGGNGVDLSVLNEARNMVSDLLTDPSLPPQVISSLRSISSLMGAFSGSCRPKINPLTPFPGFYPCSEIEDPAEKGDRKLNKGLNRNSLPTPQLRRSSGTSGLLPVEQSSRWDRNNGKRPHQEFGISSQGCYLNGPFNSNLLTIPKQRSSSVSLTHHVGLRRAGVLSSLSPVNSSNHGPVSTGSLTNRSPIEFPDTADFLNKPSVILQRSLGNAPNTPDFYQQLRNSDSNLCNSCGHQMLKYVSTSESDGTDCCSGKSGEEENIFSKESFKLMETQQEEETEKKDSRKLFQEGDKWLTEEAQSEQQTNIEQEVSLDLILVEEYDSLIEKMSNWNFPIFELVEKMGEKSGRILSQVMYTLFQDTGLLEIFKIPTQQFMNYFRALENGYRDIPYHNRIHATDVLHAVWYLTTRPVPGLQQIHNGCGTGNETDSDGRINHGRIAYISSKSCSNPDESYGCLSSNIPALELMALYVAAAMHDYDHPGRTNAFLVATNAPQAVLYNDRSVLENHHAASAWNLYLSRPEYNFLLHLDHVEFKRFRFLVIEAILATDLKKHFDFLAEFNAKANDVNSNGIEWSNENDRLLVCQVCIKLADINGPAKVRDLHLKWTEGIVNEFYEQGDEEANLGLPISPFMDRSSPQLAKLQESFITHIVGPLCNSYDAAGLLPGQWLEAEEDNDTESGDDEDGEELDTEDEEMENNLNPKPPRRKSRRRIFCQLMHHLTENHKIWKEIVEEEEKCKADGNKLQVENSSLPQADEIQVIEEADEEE
Chain of PDE10A1 (Q9Y233 1-779 isoform Q9Y233-1, species assumed): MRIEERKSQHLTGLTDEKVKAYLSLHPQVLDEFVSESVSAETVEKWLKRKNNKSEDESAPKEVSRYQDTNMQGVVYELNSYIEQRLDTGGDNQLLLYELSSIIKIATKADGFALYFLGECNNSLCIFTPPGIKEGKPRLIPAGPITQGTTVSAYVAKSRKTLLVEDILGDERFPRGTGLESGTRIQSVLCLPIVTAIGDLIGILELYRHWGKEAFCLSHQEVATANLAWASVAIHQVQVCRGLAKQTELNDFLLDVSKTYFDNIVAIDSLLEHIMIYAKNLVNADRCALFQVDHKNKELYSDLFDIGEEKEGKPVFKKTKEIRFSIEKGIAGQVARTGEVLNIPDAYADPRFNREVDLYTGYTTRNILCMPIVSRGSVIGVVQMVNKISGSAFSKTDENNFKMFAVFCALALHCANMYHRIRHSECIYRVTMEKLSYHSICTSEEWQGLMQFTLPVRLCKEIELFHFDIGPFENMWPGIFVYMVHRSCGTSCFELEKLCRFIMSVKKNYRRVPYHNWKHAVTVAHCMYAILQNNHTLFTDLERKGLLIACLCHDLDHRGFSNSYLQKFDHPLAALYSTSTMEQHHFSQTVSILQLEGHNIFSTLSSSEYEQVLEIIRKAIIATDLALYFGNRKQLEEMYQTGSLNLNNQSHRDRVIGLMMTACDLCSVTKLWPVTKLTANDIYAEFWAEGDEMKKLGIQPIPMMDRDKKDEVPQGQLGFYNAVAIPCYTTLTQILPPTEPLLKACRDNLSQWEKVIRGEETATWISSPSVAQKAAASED
Chain of PDE4D3 (Q08499 1-673 isoform Q08499-2): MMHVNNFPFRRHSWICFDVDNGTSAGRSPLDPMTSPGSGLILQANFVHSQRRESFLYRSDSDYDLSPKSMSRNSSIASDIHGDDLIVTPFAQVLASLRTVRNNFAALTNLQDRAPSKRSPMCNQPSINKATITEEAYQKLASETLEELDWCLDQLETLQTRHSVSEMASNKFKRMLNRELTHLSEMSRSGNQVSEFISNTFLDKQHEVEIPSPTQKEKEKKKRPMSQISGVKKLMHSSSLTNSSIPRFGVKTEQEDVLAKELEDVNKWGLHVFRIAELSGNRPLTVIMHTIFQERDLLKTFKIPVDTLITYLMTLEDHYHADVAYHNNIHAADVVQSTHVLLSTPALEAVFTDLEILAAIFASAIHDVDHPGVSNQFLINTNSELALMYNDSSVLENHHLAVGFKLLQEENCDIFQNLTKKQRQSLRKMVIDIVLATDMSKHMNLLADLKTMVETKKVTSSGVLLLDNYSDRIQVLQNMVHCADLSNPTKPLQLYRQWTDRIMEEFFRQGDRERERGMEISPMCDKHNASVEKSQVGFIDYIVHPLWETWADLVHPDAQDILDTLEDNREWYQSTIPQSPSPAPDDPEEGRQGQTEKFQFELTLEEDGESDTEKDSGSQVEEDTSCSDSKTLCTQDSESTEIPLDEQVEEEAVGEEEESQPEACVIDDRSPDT

Compound | IC50 [1] | further results
CCCCCCCCCCCCCc1ccc(NC(C)=O)c2c1C(=O)N([C@H](CS(C)(=O)=O)c1ccc(OC)c(OCC)c1)C2=O [Example 14, (S)-2-[1-(3-ethoxy-4-methoxyphenyl)-2-alkylsulfonylethyl]-4-acetamido-7-tridecyl isoindoline-1,3-diketone] | > 200 nM | –
CCCCCCCCCc1ccc(NC(=O)C2CC2)c2c1C(=O)N([C@H](CS(C)(=O)=O)c1ccc(OC)c(OCC)c1)C2=O [Example 17, (S)-2-[1-(3-ethoxy-4-methoxyphenyl)-2-alkylsulfonylethyl]-4-cyclopropanamido-7-nonyl isoindoline-1,3-diketone] | > 200 nM | –
CCCCCCCc1ccc(NC(=O)CCCCl)c2c1C(=O)N([C@H](CS(C)(=O)=O)c1ccc(OC)c(OCC)c1)C2=O [Example 21, (S)-2-[1-(3-ethoxy-4-methoxyphenyl)-2-alkylsulfonylethyl]-4-(γ-chlorobutyramido)-7-heptyl isoindoline-1,3-diketone] | > 200 nM | –
CCCC/C=C/c1ccc2c(c1NC(=O)CCCCl)C(=O)N([C@H](CS(C)(=O)=O)c1ccc(OC)c(OCC)c1)C2=O [Example 2, (S)-2-[1-(3-ethoxy-4-methoxyphenyl)-2-alkylsulfonylethyl]-4-(γ-chlorobutyramido)-5-hexene (−1) yl isoindoline-1,3-diketone] | 10 to 50 nM | –
CCCC#Cc1ccc(NC(C)=O)c2c1C(=O)N([C@H](CS(C)(=O)=O)c1ccc(OC)c(OCC)c1)C2=O [Example 7] | 10 to 50 nM | inhibition at 1 µM [2]: 0.08%; inhibition at 10 µM [2]: 2.65%; inhibition at 1 µM [3]: 3.87%; inhibition at 10 µM [3]: 15.5%; inhibition at 1 µM [4]: 0%; inhibition at 10 µM [4]: 1.3%; inhibition at 1 µM [5]: 1.81%; inhibition at 10 µM [5]: 0.06%; inhibition at 1 µM [6]: 0%; inhibition at 10 µM [6]: -2.87%; inhibition at 1 µM [7]: 6.8%; inhibition at 10 µM [7]: 26.5%
CCCCCc1ccc(NC(=O)COC)c2c1C(=O)N([C@H](CS(C)(=O)=O)c1ccc(OC)c(OCC)c1)C2=O [Example 31] | 50 to 200 nM | –
CCCCCCCCCc1ccc(NC(=O)CCC)c2c1C(=O)N([C@H](CS(C)(=O)=O)c1ccc(OC)c(OCC)c1)C2=O [Example 16, (S)-2-[1-(3-ethoxy-4-methoxyphenyl)-2-alkylsulfonylethyl]-4-butylamido-7-nonyl isoindoline-1,3-diketone] | > 200 nM | –
CCCCCCCCc1cc(NC(=O)C2CC2)c2c(c1)C(=O)N([C@H](CS(C)(=O)=O)c1ccc(OC)c(OCC)c1)C2=O [Example 3, (S)-2-[1-(3-ethoxy-4-methoxyphenyl)-2-alkylsulfonylethyl]-4-cyclopropanamido-5-octyl isoindoline-1,3-diketone] | > 200 nM | –
CCCCCc1ccc(NC(=O)CC(C)C)c2c1C(=O)N([C@H](CS(C)(=O)=O)c1ccc(OC)c(OCC)c1)C2=O [Example 11] | > 200 nM | –
CCCCCc1ccc(NC(=O)CCl)c2c1C(=O)N([C@H](CS(C)(=O)=O)c1ccc(OC)c(OCC)c1)C2=O [Example 25, (S)-2-[1-(3-ethoxy-4-methoxyphenyl)-2-alkylsulfonylethyl]-4-(chloroacetamido)-7-pentyl isoindoline-1,3-diketone] | 10 to 50 nM | inhibition at 1 µM [2]: 20.4%; inhibition at 10 µM [2]: 13.4%; inhibition at 1 µM [3]: 4.98%; inhibition at 10 µM [3]: 24.6%; inhibition at 1 µM [4]: 3.02%; inhibition at 10 µM [4]: 11.1%; inhibition at 1 µM [5]: 0%; inhibition at 10 µM [5]: 0.19%; inhibition at 1 µM [6]: 0%; inhibition at 10 µM [6]: 8.17%; inhibition at 1 µM [7]: 3.89%; inhibition at 10 µM [7]: 33.8%
CCCCCCc1ccc2c(c1NC(=O)CCCCl)C(=O)N([C@H](CS(C)(=O)=O)c1ccc(OC)c(OCC)c1)C2=O [Example 1, (S)-2-[1-(3-ethoxy-4-methoxyphenyl)-2-alkylsulfonylethyl]-4-(γ-chlorobutyramido)-5-hexyl isoindoline-1,3-diketone] | 50 to 200 nM | –
CCCCCCCCc1ccc(NC(=O)CCCCl)c2c1C(=O)N([C@H](CS(C)(=O)=O)c1ccc(OC)c(OCC)c1)C2=O [Example 22, (S)-2-[1-(3-ethoxy-4-methoxyphenyl)-2-alkylsulfonylethyl]-4-(γ-chlorobutyramido)-7-octyl isoindoline-1,3-diketone] | > 200 nM | –
CCCCCCCCCC(=O)Nc1cccc2c1C(=O)N([C@H](CS(C)(=O)=O)c1ccc(OC)c(OCC)c1)C2=O [Example 8, (S)-2-[1-(3-ethoxy-4-methoxyphenyl)-2-alkylsulfonylethyl]-4-decanamido-7-pentenyl (−1) isoindoline-1,3-diketone] | 50 to 200 nM | –
CCCCCc1ccc(NC(=O)CCC)c2c1C(=O)N([C@H](CS(C)(=O)=O)c1ccc(OC)c(OCC)c1)C2=O [Example 10, (S)-2-[1-(3-ethoxy-4-methoxyphenyl)-2-alkylsulfonylethyl]-4-butylamido-7-pentyl isoindoline-1,3-diketone] | 50 to 200 nM | –
CCCCCCc1ccc2c(c1NC(=O)CC)C(=O)N([C@H](CS(C)(=O)=O)c1ccc(OC)c(OCC)c1)C2=O [Example 23, (S)-2-[1-(3-ethoxy-4-methoxyphenyl)-2-alkylsulfonylethyl]-4-propanamido-6-hexyl isoindoline-1,3-diketone] | 50 to 200 nM | –
CCCCCC(=O)Nc1ccc(CCCCC)c2c1C(=O)N([C@H](CS(C)(=O)=O)c1ccc(OC)c(OCC)c1)C2=O [Example 12] | > 200 nM | –
CCCCCCCCCCCCCc1ccc(NC(=O)CC)c2c1C(=O)N([C@H](CS(C)(=O)=O)c1ccc(OC)c(OCC)c1)C2=O [Example 19, (S)-2-[1-(3-ethoxy-4-methoxyphenyl)-2-alkylsulfonylethyl]-4-propanamido-7-tridecyl isoindoline-1,3-diketone] | > 200 nM | –
CCCCCc1ccc(NC(=O)C2CC2)c2c1C(=O)N([C@H](CS(C)(=O)=O)c1ccc(OC)c(OCC)c1)C2=O [Example 6, (S)-2-[1-(3-ethoxy-4-methoxyphenyl)-2-alkylsulfonylethyl]-4-cyclopropanamido-7-pentyl isoindoline-1,3-diketone] | 50 to 200 nM | –
CCCCCCCCCCCCCc1ccc(NC(=O)C2CC2)c2c1C(=O)N([C@H](CS(C)(=O)=O)c1ccc(OC)c(OCC)c1)C2=O [Example 15, (S)-2-[1-(3-ethoxy-4-methoxyphenyl)-2-alkylsulfonylethyl]-4-cyclopropanamido-7-tridecyl isoindoline-1,3-diketone] | > 200 nM | –
CCCCc1ccc(NC(=O)CCl)c2c1C(=O)N([C@H](CS(C)(=O)=O)c1ccc(OC)c(OCC)c1)C2=O [Example 26, (S)-2-[1-(3-ethoxy-4-methoxyphenyl)-2-alkylsulfonylethyl]-4-chloroacetamido-7-butyl isoindoline-1,3-diketone] | 10 to 50 nM | –
CCCCCCCCCc1ccc(NC(=O)CC)c2c1C(=O)N([C@H](CS(C)(=O)=O)c1ccc(OC)c(OCC)c1)C2=O [Example 18, (S)-2-[1-(3-ethoxy-4-methoxyphenyl)-2-alkylsulfonylethyl]-4-propanamido-7-nonyl isoindoline-1,3-diketone] | 50 to 200 nM | –
CCCCCc1ccc(CNC(C)=O)c2c1C(=O)N([C@H](CS(C)(=O)=O)c1ccc(OC)c(OCC)c1)C2=O [Example 4, (S)-2-[1-(3-ethoxy-4-methoxyphenyl)-2-alkylsulfonylethyl]-4-acetamidomethyl-7-pentyl isoindoline-1,3-diketone] | 10 to 50 nM | –
CCCCCc1ccc(NC(=O)CO)c2c1C(=O)N([C@H](CS(C)(=O)=O)c1ccc(OC)c(OCC)c1)C2=O [Example 30] | 50 to 200 nM | –
CCCCCCc1ccc(NC(=O)CCCCl)c2c1C(=O)N([C@H](CS(C)(=O)=O)c1ccc(OC)c(OCC)c1)C2=O [Example 20, (S)-2-[1-(3-ethoxy-4-methoxyphenyl)-2-alkylsulfonylethyl]-4-(γ-chlorobutyramido)-7-hexyl isoindoline-1,3-diketone] | 50 to 200 nM | –
